Measurements: patent publication US6462038B1, “Androgen receptor modulator compounds and methods” (Ligand Pharmaceuticals, Inc., priority 1999, dated 2002)
Like-named read-outs stand apart in the source and are kept apart here.

Assays:
Assay type in all cases: cell-based
PR [1] = target: T1, PR (Homo sapiens, UniProt P06401); test: co-transfection assay, PR agonist
T1 construct: expressed in transfected cells; host or cells: CV-1 cells
T1 sequence (P06401 1-933): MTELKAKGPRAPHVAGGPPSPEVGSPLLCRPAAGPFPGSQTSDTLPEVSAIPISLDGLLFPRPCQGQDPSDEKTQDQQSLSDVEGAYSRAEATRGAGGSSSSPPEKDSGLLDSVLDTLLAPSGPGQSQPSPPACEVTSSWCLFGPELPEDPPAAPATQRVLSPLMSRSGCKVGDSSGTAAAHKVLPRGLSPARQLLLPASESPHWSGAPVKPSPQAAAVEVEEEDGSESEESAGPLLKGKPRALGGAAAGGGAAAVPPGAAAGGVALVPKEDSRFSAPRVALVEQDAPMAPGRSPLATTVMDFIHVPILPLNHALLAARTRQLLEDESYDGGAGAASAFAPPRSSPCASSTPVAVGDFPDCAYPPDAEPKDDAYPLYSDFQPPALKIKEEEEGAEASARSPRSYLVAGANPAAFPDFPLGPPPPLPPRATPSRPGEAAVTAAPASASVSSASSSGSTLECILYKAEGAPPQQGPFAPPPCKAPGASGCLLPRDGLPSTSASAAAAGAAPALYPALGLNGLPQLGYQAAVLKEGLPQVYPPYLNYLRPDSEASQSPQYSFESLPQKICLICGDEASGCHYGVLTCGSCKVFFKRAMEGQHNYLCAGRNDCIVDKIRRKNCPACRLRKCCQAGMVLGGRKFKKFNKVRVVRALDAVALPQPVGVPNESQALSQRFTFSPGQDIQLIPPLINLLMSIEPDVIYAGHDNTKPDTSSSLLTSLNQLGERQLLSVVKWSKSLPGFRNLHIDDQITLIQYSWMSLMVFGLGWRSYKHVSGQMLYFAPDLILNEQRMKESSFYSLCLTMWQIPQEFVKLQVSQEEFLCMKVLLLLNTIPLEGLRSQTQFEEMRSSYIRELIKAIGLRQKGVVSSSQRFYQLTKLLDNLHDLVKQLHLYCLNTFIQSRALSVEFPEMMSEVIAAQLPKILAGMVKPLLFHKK
Method: (§1) CV-1 cells (African green monkey kidney fibroblasts) were cultured in the presence of Dulbecco's Modified Eagle Medium (DMEM) supplemented with 10% charcoal resin-stripped fetal bovine serum (CH-FBS) then transferred to 96-well microtiter plates one day prior to transfection.
(§2) Three to four replicates were used for each sample.
(§3) After 40 hours, the cells were washed with PBS, lysed with a Triton X-100-based buffer and assayed for LUC and β-Gal activities using a luminometer or spectrophotometer, respectively. For each replicate, the normalized response (NR) was calculated as: […]

ER [2] = target: T2, ER (Homo sapiens, UniProt P03372); test: co-transfection assay, ER agonist
T2 construct: expressed in transfected cells; host or cells: CV-1 cells
Method: as §1, §2, §3

PR [3] = target: T1, PR; test: co-transfection assay, PR antagonist (in presence of progesterone)
Method: as §1, §2, §3

MR = target: T3, MR (Homo sapiens, UniProt P08235); test: co-transfection assay, MR antagonist
T3 construct: expressed in transfected cells; host or cells: CV-1 cells
T3 sequence (P08235 1-984): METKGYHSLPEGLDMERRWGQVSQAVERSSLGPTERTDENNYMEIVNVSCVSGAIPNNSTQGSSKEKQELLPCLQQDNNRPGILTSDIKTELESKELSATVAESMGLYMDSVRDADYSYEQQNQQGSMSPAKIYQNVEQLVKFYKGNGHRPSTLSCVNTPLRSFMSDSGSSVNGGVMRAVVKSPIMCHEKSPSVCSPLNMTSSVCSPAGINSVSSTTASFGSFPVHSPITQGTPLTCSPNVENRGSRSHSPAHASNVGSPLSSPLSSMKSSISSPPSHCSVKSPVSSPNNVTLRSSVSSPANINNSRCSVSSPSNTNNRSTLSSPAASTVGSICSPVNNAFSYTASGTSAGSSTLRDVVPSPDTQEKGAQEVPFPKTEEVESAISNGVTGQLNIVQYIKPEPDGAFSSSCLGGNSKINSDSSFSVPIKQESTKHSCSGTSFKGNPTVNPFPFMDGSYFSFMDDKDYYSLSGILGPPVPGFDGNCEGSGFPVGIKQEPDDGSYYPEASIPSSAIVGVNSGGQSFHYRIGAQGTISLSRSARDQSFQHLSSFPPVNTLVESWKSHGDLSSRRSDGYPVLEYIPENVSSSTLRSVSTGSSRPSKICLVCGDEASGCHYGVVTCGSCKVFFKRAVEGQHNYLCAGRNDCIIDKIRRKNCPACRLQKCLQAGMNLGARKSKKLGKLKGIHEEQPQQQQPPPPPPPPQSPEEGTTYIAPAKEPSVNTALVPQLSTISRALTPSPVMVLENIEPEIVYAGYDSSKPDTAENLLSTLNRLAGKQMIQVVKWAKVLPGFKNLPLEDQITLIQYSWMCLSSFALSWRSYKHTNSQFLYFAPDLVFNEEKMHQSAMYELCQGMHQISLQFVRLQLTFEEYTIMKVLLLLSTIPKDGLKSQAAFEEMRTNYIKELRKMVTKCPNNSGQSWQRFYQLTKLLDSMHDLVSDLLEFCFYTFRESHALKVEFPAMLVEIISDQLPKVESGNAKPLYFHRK
Method: as §1, §2, §3

ER [4] = target: T2, ER; test: co-transfection assay, ER antagonist
Method: as §1, §2, §3

GR = target: T4, GR (Homo sapiens, UniProt P04150); test: co-transfection assay, GR antagonist
T4 construct: expressed in transfected cells; host or cells: CV-1 cells
T4 sequence (P04150 1-777): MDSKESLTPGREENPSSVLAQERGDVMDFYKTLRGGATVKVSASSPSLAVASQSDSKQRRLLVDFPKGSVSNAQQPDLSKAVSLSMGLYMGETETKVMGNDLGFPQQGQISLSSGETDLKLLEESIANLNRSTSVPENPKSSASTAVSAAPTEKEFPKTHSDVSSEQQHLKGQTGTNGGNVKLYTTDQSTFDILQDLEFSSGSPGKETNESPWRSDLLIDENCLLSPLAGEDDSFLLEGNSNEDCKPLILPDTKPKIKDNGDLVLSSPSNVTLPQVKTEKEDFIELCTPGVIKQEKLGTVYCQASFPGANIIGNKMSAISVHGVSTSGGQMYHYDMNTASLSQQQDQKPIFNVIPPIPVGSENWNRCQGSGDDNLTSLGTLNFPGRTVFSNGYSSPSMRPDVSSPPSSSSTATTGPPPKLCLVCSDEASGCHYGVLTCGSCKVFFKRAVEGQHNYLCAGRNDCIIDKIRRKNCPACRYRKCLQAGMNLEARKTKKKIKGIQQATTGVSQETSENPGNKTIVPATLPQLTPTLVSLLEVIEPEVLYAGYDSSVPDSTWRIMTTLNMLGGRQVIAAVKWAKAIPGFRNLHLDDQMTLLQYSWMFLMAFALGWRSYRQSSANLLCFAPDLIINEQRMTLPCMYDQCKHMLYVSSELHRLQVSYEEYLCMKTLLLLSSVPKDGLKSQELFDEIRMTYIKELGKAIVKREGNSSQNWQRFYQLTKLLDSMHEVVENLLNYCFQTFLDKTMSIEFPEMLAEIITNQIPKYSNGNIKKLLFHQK
Method: as §1, §2, §3

hAR [5] = target: T5, hAR (Homo sapiens, UniProt P10275); test: co-transfection assay, AR agonist, CV-1 cells; conditions: for AR Agonist CV-1 Cells Efficacy (%): relative to maximum LUC production by reference agonist
T5 construct: expressed in transfected cells; host or cells: CV-1 cells (African green monkey kidney fibroblasts)
T5 sequence (P10275 1-920): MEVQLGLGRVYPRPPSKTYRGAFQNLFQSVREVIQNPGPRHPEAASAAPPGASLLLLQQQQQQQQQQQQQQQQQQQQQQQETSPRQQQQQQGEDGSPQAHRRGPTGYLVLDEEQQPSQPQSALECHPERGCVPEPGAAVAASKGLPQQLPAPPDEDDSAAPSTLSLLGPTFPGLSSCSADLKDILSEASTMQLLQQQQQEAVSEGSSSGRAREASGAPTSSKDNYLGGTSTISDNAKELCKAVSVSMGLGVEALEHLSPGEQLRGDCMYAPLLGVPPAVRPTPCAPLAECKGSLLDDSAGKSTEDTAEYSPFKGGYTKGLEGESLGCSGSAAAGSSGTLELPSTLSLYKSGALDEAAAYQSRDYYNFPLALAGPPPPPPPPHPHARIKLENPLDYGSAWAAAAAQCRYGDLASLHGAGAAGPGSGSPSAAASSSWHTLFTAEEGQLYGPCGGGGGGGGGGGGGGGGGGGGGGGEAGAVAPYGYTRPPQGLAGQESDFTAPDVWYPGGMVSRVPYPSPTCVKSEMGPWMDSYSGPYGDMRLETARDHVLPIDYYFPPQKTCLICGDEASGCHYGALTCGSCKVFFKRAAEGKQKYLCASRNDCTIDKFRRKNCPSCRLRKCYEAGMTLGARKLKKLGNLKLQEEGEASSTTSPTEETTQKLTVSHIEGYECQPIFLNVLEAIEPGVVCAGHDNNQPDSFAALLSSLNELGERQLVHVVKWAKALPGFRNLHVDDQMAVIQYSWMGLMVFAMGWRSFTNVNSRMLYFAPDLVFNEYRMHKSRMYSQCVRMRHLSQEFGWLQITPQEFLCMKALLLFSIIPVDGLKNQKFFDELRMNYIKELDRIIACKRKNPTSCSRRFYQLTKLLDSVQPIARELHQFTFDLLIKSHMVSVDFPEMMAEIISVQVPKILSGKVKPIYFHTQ

hAR [6] = target: T5, hAR; test: co-transfection assay, AR antagonist (in presence of DHT), CV-1 cells; conditions: for AR Antagonist CV-1 Cells Efficacy (%): hAR in CV-1 cells, maximal inhibition, DHT at EC50

T2 sequence (P03372 whole entry): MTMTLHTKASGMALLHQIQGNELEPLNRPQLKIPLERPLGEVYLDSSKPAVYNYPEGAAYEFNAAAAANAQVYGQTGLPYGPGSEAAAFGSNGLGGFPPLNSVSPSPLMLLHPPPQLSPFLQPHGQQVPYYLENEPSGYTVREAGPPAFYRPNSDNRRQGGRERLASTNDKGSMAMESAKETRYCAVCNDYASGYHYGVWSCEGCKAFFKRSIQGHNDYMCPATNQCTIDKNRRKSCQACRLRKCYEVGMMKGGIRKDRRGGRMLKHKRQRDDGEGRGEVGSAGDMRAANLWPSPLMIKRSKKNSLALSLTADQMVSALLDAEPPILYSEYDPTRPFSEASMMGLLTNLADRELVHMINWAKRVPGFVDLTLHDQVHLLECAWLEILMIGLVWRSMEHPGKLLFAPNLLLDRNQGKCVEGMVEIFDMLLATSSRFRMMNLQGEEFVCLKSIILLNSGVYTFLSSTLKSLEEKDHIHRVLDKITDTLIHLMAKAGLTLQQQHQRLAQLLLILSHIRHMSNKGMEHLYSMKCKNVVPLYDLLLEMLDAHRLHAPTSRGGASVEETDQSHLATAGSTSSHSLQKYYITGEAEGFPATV

| SMILES | EC50 (PR [1]) [µM] | EC50 (ER [2]) [µM] | IC50 (PR [3]) [µM] | IC50 (MR) [µM] | IC50 (ER [4]) [µM] | IC50 (GR) [µM] | EC50 (hAR [5]; AR Agonist CV-1 Cells Potency (nM), hAR in CV-1 cells) [nM] | EC50 (hAR [5]; AR Potency Agon (nM), Table 2) [nM] | AR Agonist CV-1 Cells Efficacy (%) (hAR [5]; hAR in CV-1 cells) | IC50 (hAR [6]) [µM] | AR Antagonist CV-1 Cells Efficacy (%) (hAR [6]) | IC50 (hAR [6]; read-out: AR Potency Antag, Table 2) [µM] | EC50 (ER [2]; Table 2, read-out: ER Potency Agon) [µM] | IC50 (ER [4]; Table 2, read-out: ER Potency Antag) [µM] |
| --- | --- | --- | --- | --- | --- | --- | --- | --- | --- | --- | --- | --- | --- | --- |
| CC1CN(CC(F)(F)F)c2cc3c(C(F)(F)F)cc(=O)[nH]c3cc2O1 (racemic) [Compound 114, (±)-1,2,3,6-Tetrahydro-3-methyl-1-(2,2,2-trifluoroethyl)-9-(trifluoromethyl)-7H-[1,4]oxazino[3,2-g]quinolin-7-one] | > 10 | > 10 | > 10 | > 10 | > 10 | > 10 |  |  |  |  |  |  |  |  |
| CC1COc2cc3[nH]c(=O)cc(C(F)(F)F)c3cc2N1CC(F)(F)F (racemic) [Compound 123, (±)-1,2,3,6-Tetrahydro-2-methyl-1-(2,2,2-trifluoroethyl)-9-(trifluoromethyl)-7H-[1,4]oxazino[3,2-g]quinolin-7-one] | > 10 | > 10 | 2.47 |  | > 10 | 3.16 | 3.4 | 3.4 | 91 | > 10 | na (na = not active (i.e. efficacy of < 20 and potency of > 10,000 nM for the cotransfection assay, and Ki > 1000 nM for the binding assay)) | > 10 |  |  |
| CCN1CCOc2cc3[nH]c(=O)cc(C(F)(F)F)c3cc21 [Compound 103, 1-Ethyl-1,2,3,6-tetrahydro-9-(trifluoromethyl)-7H-[1,4]oxazino[3,2-g]quinolin-7-one] | > 10 | > 10 | 4.5 | > 10 | > 10 | > 10 |  |  |  |  |  |  |  |  |
| CC(C)(O)C(=O)Nc1ccc([N+](=O)[O-])c(C(F)(F)F)c1 [Flut, 2-hydroxyflutamide, reference compound] |  |  |  |  |  |  |  |  |  |  |  |  | > 10 | > 10 |
| CN1CCOc2cc3[nH]c(=O)cc(C(F)(F)F)c3cc21 [Compound 101, 1,2,3,6-Tetrahydro-1-methyl-9-(trifluoromethyl)-7H-[1,4]oxazino[3,2-g]quinolin-7-one] | > 10 | > 10 | > 10 | > 10 | > 10 | 6.5 |  |  |  |  |  |  |  |  |
| O=c1cc(C(F)(F)F)c2cc3c(cc2[nH]1)OCC(CO)N3CC(F)(F)F (racemic) [Compound 130, (±)-1,2,3,6-Tetrahydro-2-(hydroxymethyl)-1-(2,2,2-trifluoroethyl)-9-(trifluoromethyl)-7H-[1,4]oxazino[3,2-g]quinolin-7-one] |  |  |  |  |  |  |  |  | 48 |  | na (na = not active (i.e. efficacy of < 20 and potency of > 10,000 nM for the cotransfection assay, and Ki > 1000 nM for the binding assay)) |  |  |  |
| O=c1cc(C(F)(F)F)c2cc3c(cc2[nH]1)OCCN3CC1CC1 [Compound 121, 1-Cyclopropylmethyl-1,2,3,6-tetrahydro-9-(trifluoromethyl)-7H-[1,4]oxazino[3,2-g]quinolin-7-one] | > 10 | > 10 | 0.415 | 2.57 | > 10 | 1.05 |  |  |  |  |  |  |  |  |
| C[C@]1(O)CC[C@H]2[C@@H]3CCC4=CC(=O)CC[C@]4(C)[C@@]3(F)[C@@H](O)C[C@@]21C [Fluox, fluoxymesterone] | 1.21 |  | 0.224 | 0.193 |  | 0.263 |  |  |  |  |  |  |  |  |
